PMC2678945 (The Journal of neuroscience : the official journal of the …, 2008)
Read-outs that look alike come from different tables or passages of the source.

Tests used:
hTRPA1-dTM5 [1] = biological target: T1, hTRPA1-dTM5 (Homo sapiens / Drosophila melanogaster, UniProt O75762+Q7Z020); format: cell-based
hTRPA1 [2] = biological target: T2, hTRPA1 (Homo sapiens, UniProt O75762); assay: FLIPR calcium assay, wild type hTRPA1; format: cell-based
mosquito-TRPA1 = assay: FLIPR calcium assay, mosquito-TRPA1; format: cell-based, Anopheles gambiae
hTRPA1-V875G = hTRPA1-V875G (Homo sapiens, UniProt O75762, V875G); assay: FLIPR calcium assay, mutant hTRPA1-V875G; format: cell-based
hTRPA1-V875G, sequence (O75762 whole entry V875G): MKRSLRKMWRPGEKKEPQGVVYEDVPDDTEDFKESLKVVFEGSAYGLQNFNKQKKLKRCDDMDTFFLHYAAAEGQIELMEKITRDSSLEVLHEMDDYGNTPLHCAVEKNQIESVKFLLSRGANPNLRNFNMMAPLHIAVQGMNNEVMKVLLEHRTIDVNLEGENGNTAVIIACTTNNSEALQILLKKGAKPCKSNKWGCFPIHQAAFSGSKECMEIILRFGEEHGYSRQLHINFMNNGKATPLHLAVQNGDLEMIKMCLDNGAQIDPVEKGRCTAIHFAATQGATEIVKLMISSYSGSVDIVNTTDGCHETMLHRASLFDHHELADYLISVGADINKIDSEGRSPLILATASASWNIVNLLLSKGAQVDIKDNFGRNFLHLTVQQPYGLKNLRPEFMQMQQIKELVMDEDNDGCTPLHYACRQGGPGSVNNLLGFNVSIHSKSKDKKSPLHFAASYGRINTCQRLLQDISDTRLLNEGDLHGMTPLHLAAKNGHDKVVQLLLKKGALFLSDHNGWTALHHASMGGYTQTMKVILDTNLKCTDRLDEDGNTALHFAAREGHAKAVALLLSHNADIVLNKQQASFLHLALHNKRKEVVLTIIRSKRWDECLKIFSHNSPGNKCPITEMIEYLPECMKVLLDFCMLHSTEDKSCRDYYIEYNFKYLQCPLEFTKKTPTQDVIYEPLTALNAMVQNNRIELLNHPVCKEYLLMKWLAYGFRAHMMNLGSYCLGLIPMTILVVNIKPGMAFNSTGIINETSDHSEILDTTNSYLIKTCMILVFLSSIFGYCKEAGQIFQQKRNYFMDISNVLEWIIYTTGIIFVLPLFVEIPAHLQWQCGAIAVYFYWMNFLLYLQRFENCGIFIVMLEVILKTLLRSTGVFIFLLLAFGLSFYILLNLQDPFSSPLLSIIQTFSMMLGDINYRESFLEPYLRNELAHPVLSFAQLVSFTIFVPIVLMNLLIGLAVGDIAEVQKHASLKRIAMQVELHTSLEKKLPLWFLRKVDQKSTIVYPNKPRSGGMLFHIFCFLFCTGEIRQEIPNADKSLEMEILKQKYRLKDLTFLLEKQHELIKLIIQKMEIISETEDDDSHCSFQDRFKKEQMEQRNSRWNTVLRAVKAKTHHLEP

dTRPA1 = biological target: T3, dTRPA1 (Drosophila melanogaster, UniProt Q7Z020); assay: Whole-cell patch-clamp, HEK293T cells expressing dTRPA1; format: cell-based; details: at +120 mV
T3 sequence (Q7Z020 1-1197): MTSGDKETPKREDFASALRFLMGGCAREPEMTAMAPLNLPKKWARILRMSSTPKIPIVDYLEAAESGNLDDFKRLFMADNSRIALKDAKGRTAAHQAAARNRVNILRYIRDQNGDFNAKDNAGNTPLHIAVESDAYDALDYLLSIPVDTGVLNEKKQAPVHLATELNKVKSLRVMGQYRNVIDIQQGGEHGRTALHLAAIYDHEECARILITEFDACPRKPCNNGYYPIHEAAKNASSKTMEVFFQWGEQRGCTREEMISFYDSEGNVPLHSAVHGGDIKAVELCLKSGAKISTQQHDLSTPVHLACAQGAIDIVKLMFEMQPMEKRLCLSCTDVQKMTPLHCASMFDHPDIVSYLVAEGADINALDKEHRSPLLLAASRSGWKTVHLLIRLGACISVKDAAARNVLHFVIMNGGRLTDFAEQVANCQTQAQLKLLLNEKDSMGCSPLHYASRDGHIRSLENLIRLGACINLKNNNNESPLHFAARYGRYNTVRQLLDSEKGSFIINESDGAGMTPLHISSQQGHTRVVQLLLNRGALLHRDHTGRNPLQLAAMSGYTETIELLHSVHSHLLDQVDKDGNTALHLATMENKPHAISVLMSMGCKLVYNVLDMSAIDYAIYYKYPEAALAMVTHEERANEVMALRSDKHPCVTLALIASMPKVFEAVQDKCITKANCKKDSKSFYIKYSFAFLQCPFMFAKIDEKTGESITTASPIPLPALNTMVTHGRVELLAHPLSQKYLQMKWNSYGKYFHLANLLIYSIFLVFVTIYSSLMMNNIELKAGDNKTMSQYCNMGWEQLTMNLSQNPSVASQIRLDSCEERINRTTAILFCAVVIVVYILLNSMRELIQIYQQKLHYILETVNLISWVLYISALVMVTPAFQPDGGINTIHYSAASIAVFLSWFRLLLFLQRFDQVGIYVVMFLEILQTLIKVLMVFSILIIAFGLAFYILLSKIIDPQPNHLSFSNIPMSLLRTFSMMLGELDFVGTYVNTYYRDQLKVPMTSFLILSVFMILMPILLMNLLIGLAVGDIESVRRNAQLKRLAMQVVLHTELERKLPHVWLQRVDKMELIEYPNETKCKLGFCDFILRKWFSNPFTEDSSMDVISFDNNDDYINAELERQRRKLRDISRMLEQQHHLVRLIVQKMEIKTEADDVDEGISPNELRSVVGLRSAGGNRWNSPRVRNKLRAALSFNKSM

mTRPA1 [3] = biological target: T4, mTRPA1 (Mus musculus, UniProt Q8BLA8); assay: Whole-cell patch-clamp, HEK293T cells expressing mTRPA1; format: cell-based; details: 100 μM MO in the presence of 500 μM menthol; n = 7
T4 sequence (Q8BLA8 whole entry): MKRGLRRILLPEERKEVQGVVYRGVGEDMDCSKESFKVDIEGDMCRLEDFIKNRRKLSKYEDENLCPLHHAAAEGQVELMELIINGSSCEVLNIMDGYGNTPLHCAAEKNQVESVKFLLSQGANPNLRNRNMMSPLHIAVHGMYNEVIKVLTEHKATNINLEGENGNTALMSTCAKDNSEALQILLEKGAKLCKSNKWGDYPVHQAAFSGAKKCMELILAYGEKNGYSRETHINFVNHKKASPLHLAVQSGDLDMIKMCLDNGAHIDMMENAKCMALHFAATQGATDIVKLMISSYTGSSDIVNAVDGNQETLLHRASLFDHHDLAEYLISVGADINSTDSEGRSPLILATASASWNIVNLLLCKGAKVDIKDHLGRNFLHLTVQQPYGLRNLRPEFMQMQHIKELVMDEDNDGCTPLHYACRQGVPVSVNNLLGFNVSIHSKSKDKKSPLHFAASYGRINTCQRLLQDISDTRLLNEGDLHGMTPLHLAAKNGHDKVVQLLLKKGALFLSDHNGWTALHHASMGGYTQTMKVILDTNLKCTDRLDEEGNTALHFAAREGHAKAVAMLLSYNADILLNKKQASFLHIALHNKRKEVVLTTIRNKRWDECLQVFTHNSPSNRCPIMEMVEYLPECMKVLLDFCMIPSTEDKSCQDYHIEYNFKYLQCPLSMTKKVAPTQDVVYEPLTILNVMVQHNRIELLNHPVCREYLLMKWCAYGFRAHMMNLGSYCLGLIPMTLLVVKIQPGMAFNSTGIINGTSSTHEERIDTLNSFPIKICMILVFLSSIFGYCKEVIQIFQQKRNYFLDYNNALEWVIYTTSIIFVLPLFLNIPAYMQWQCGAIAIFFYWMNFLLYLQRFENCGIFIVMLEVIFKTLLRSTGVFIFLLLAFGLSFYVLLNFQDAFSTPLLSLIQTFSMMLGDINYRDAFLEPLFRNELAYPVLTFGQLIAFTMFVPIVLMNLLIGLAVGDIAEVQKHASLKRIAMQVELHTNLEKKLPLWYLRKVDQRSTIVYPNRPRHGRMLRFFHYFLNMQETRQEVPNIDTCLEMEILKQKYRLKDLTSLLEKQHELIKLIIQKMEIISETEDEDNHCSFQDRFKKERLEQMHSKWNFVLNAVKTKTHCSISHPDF

hTRPA1-dTM5 [4] = biological target: T1, hTRPA1-dTM5; assay: Whole-cell patch-clamp, HEK293T cells expressing hTRPA1-dTM5; format: cell-based; details: 250 μM menthol
hTRPA1 [5] = biological target: T2, hTRPA1; assay: Whole-cell patch-clamp, HEK293T cells expressing hTRPA1; format: cell-based; details: 250 μM menthol; at +120 mV; n = 11
mTRPA1-dTM5 = assay: Whole-cell patch-clamp, HEK293T cells expressing mTRPA1-dTM5; format: cell-based, mouse / Drosophila melanogaster; details: 50 μM menthol
fugu-TRPA1 = assay: FLIPR calcium assay, fugu-TRPA1; format: cell-based, Takifugu
hTRPA1-mTM5-6 = hTRPA1-mTM5-6 (Homo sapiens, UniProt O75762, A939G/E920D/H933Y/I890V/I905L/I946M/L867F/L894F/L927F/P897A/S900T/S921A/S937T/S943A/V875G/V942I/Y926L); assay: FLIPR calcium assay, chimera hTRPA1-mTM5-6; format: cell-based, human / mouse
mTRPA1 [6] = biological target: T4, mTRPA1; assay: cell-based
mTRPA1-hTM5-6 = mTRPA1-hTM5-6 (Mus musculus, UniProt Q8BLA8, A900P/A924S/A946S/D923E/F870L/F897L/F930L/G878V/G942A/I945V/L908I/L929Y/M949I/T903S/T940S/V893I/Y936H); assay: FLIPR calcium assay, chimera mTRPA1-hTM5-6; format: cell-based, mouse / human
mTRPA1-hTM5-6, sequence (Q8BLA8 1-1125 with the stated changes): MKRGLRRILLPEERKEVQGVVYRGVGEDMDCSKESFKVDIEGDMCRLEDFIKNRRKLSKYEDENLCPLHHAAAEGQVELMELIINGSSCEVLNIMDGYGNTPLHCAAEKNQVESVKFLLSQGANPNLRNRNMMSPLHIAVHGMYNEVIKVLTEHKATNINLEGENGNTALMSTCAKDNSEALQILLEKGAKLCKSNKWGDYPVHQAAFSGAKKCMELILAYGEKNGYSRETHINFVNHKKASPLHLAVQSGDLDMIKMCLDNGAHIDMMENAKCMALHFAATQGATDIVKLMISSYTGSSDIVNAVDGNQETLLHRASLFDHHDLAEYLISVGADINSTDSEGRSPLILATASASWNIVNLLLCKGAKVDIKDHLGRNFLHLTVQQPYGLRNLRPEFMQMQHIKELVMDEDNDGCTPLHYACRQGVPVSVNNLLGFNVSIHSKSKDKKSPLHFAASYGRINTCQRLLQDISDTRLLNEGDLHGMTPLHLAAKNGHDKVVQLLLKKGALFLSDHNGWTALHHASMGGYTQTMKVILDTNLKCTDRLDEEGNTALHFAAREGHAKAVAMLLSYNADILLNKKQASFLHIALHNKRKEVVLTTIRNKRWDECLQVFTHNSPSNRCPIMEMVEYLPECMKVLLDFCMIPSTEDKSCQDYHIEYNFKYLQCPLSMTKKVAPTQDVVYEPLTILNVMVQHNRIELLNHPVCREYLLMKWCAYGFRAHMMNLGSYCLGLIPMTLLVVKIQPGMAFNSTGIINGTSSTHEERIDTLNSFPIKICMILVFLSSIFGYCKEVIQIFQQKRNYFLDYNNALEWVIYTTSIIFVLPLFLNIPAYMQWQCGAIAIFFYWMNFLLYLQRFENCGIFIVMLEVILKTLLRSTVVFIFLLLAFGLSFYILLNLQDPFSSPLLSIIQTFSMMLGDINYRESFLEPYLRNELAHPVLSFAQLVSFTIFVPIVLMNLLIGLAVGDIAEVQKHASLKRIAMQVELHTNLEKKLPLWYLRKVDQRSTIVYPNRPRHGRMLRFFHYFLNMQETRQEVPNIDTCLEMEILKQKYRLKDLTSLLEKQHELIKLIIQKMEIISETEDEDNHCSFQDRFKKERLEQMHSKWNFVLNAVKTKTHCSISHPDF

hTRPA1-FGFATLIAM = hTRPA1-FGFATLIAM (Homo sapiens, UniProt O75762, I905L/I946M/L867F/L894F/P897A/S900T/S943A/V875G/V942I); assay: FLIPR calcium assay, mutant hTRPA1-[…]; format: cell-based
hTRPA1-FGFATLIAM, sequence (O75762 whole entry L867F/V875G/L894F/P897A/S900T/I905L/V942I/S943A/I946M): as the sequence (O75762 whole entry V875G) above, with L867F, L894F, P897A, S900T, I905L, V942I, S943A, I946M counted along it

dTRPA1-mN = dTRPA1-mN (Mus musculus / Drosophila melanogaster, UniProt Q7Z020+Q8BLA8); format: cell-based
dTRPA1-mN, sequence (Q8BLA8 1-720, one chain of several): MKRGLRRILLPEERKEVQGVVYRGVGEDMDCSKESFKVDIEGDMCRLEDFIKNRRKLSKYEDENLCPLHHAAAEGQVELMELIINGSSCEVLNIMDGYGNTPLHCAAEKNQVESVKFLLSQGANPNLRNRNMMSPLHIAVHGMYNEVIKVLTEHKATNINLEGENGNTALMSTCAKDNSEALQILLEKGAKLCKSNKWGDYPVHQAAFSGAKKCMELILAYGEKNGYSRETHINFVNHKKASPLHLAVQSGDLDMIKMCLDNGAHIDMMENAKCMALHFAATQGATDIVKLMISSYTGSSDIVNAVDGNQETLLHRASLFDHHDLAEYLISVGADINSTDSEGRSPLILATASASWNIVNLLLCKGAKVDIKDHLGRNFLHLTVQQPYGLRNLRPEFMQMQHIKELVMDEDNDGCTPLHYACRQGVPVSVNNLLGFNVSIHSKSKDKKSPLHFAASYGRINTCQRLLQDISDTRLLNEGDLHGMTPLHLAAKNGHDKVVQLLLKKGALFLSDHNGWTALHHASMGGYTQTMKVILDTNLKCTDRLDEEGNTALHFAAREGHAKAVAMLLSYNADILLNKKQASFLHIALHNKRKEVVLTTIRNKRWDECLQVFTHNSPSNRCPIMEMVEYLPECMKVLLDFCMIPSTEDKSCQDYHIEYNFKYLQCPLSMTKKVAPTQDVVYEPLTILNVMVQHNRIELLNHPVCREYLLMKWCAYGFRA

mTRPA1 [7] = biological target: T4, mTRPA1; details: read-out: IC50, inhibition of MO-induced mTRPA1 activity
mTRPA1-S876V/T877L = mTRPA1-S876V/T877L (Mus musculus, UniProt Q8BLA8, S876V/T877L); format: cell-based
mTRPA1-S876V/T877L, sequence (Q8BLA8 whole entry S876V/T877L): as the sequence (Q8BLA8 whole entry) above, with S876V, T877L counted along it

T2 sequence (O75762 whole entry): as the sequence (O75762 whole entry V875G) above, with G875V counted along it

Cl.Cl.Cl.Cl.Cl.Cl.N.N.N.N.N.N.N.N.N.N.N.N.N.N.[O-2].[O-2].[Ru+3].[Ru+3].[Ru+4] [Ruthenium Red, ruthenium red]
IC50 (hTRPA1-dTM5 [1]; read-out: hTRPA1-dTM5 IC50 (Inhibition)): 480 ± 30 nM

CC(C)=CCC/C(C)=C/CC/C(C)=C/CSc1ccccc1C(=O)O [FTS, Farnesyl thiosalicylic acid]
EC50 (hTRPA1 [2]; read-out: hTRPA1 EC50 (Activation)): 7.3 ± 1.1 µM
hTRPA1-dTM5 EC50 (Activation) (hTRPA1-dTM5 [1]): No activation

CC(C)[C@@H]1CC[C@@H](C)C[C@H]1O [Menthol, (-)-Menthol]
menthol sensitivity of mosquito-TRPA1 (mosquito-TRPA1): not sensitive
IC50 (hTRPA1-V875G): 119 ± 16.5 µM
change in evoked current in dTRPA1 cells (dTRPA1; 25-100 μM menthol, n = 7): -0.53 ± 0.3 pA/pF
activation of dTRPA1 current (dTRPA1; 250-500 μM menthol, 3 min of recording): ineffective
MO-induced mTRPA1 currents at +120 mV, normalized to currents elicited at +180 mV (mTRPA1 [3]): 16 ± 7%
activation of hTRPA1-dTM5 current (hTRPA1-dTM5 [4]): completely abolished
whole cell current density evoked in hTRPA1 cells (hTRPA1 [5]): 59.0 ± 10.2 pA/pF
activation of mTRPA1-dTM5 current (mTRPA1-dTM5): completely abolished
block of the response of hTRPA1 to 100 μM MO (hTRPA1 [2]): did not block
menthol sensitivity of fugu-TRPA1 (fugu-TRPA1): not sensitive
IC50 (hTRPA1-mTM5-6): 71 ± 16.5 µM
hTRPA1-dTM5 EC50 (Activation) (hTRPA1-dTM5 [1]; FLIPR, responses normalized to 100 μM MO): No activation
IC50 (mTRPA1 [6]): 73.4 ± 11.5 µM
EC50 (mTRPA1-hTM5-6): 43.9 ± 6.4 µM
inhibition of MO-evoked mTRPA1-hTM5-6 activity (mTRPA1-hTM5-6; FLIPR, 100 μM MO): not significantly inhibited
IC50 (hTRPA1-FGFATLIAM): 36.6 ± 9 µM
menthol effect at dTRPA1-mN (dTRPA1-mN): ineffective

CC(C)c1ccc(NC(=O)Cn2cnc3c2c(=O)n(C)c(=O)n3C)cc1 [HC030031, 2-(1,3-dimethyl-2,6-dioxo-1,2,3,6-tetrahydro-7H-purin-7-yl)-N-(4-isopropylphenyl)acetamide]
IC50 (hTRPA1 [2]): 12.9 ± 2.67 µM

CC(=NO)/C(C)=C\c1ccc(Cl)cc1 [AP18, (Z)-4-(4-chlorophynyl)-3-methylbut-3-en-2-oxime]
IC50 (mTRPA1 [7]): 690 ± 90 nM
IC50 (hTRPA1 [2]; read-out: hTRPA1 IC50 (Inhibition)): 0.6 ± 0.17 µM
inhibitory effect on MO-induced mTRPA1-S876V/T877L activity (mTRPA1-S876V/T877L): totally abolished
hTRPA1-dTM5 IC50 (Inhibition) (hTRPA1-dTM5 [1]): No inhibition
